From patent publication US20130273546A1, “LOW TEMPERATURE ENZYME AND METHOD THEREOF” (UNIVERSITI PUTRA MALAYSIA, priority 2009, published 2013)

B1: recombinant PI12 protease: cold-adapted serine protease of L. antarcticum PI12 (SEQ ID NO: 2) expressed in Pichia pastoris (protein, listed as Leucosporidium antarcticum)
chain: MLFLPVLLLLLPGVTAFLNPVTNRATNAISSTQYLSNAYILELDLSTPGLVKRDSTPDSILEDVLTSVGRNGIKYQLRHRFISPTLFHGASITVPPGISRSQIASLRGIKRVWPVRKFSRPSAVVDADGGGSGFSGSPIKAALMGVKELGKRANAYAGDTFGPHVMTGVNETHEAGLLGAGIKIGVLDTGVDYLNPILGGCFGPGCHMSFGYDLVGDDYDGDNAPVPDVDPFASCDPHGTHVTGIIGALPNAFGFTGVAPAATLGHYRVFGCTGFVGEDIILAGLMRGVEDNCNVLTLSLGGPGGWVKGTPASILIDQIEAQGILVTVATGNSGAEGMFFSESPASTINGLSIASTDVTDLIAYNATVSGQPAIPYLSATPLNVVANSFRVHFTSTDPNNPVDACSPLPAGAPDFANYVTVVQRGTCTFVTKYQNVLNAGGKIVLLYNSEGAGNLPYLTPNGVGIDAVAGLRRSDGLKLLSYYQNANKRLTLRFPKGKIVAGLTDTITGGLISGYSTFGPTNDLYGQPTLSAPGGNILSTFPLSEGGVAVISGTSMSCPFVAGSAAVLMAARASENLTPLEIRSLLTTTAKLTPVSLLGSTPLVSVIRQGGGLVQVAKALAAKTLISPHELLLNDTANANYVQTIKIKNTNSWAMKYTFSSAVAQGLGTFDASGDILPTLDPVAVSGAQATVAFNTRILSVAPGATGSVVATITPPVLPVADAARFPIFSGWIRVNGQGARDSSRNEAYTVPYFGLAAKMIDMQVLDTTETIYGPGYAYPFVIDDAIGDIQSTTTSYSRNLGPTVFARFATGTLHYSLDLVLADIAFTPTYPNSSPATRFVKRSLTQHTSAASHLAKRRVSIATINPKATLVADRQLHSDVPIEGNIFTQPFTGRDYLVDAAPTGSTDRTVTFNGQYAENGLVRTAVTGTSYRFLLRALKISGDAMYEDQYESWLSLPFSFRA
B2: Cold-adapted protease PI12: protease from Leucosporidium antarcticum strain PI12 (NCYC 3391), amino acid sequence SEQ ID NO: 2, GenBank CAQ76821 (protein, listed as Leucosporidium antarcticum)
chain: B1 chain

Tests used:
[1] = tested on: Leucosporidium antarcticum strain PI12; experiment: Growth of the Antarctic isolate on solid media with antibiotics; assay type: cell-based; details: 10 days at 4° C.
Description: Antarctic microorganism isolated strain was grown on different types of solid media (nutrient agar, sabouroud dextrose agar and potato dextrose agar) and several antibiotics for 10 days at 4° C. and the culture characteristics (colony colour, shape, texture) were determined. Simple staining was performed to identify the cell morphology, arrangement and size of the psychrophilic isolate PI12. Scanning electron microscopy (SEM) and transmission electron microscopy (TEM) were also conducted to study the surface features and the internal ultrastructure in thin sections of the PI12 cells. […] The growth for this microorganism was best at 4° C. and decreased through the temperature range tested (4° C.-20° C.) but no growth at over 20° C. […] The Antarctic microorganism strain PI12 was grown and screened qualitatively for the protease production on skim milk agar. The plate was incubated at 4° C. for 10 days. Protease was excreted out of the cells into the surrounding media, catalyzing the breakdown of casein and formed clearing zones around the growth area.

[2] = tested on: azocasein; experiment: Protease activity assay with azocasein as substrate (modified method of Brock et al.), culture supernatants; assay type: biochemical; details: GpPro2 20.3 U/mL versus wild-type 1.0 U/mL
Description: After 10 days of incubation, the supernatant was assayed for protease activity. Protease activity was determined by the modified method of Brock et al. (1982). Azocasein (0.5%, 1 mL) was dissolved in 0.1 M Tris-HCl-2 mM CaCl2 pH 7 was pipetted into vials and pre-incubated at 4° C. The reaction was initiated by addition of 100 μL of enzyme solution for 30 min (unless stated otherwise). An equal volume of 10% (w/v) trichloroacetic acid (TCA) was added to terminate the reaction and the mixture was allowed to stand at room temperature for 30 min before centrifugation in eppendorf microcentrifuge at 13,000×g for 10 min. The supernatant was removed and mixed with an equal volume of 1 N NaOH. The absorbance was read at 450 nm using UV/Visible spectrophotometer Ultraspec 2100 pro (Amersham Biosciences, USA). One unit of azocaseinase activity was defined as the amount of enzyme activity which produces an absorbance change of 0.001 per min at 4° C. under the standard assay condition. For control, the enzyme was added at the end of the incubation period. […]
Assay activity of recombinant PI12 protease was determined by the modified method of Brock et a (1982) the assay activity for recombinant PI12 protease was performed at 15° C.

[3] = Temperature profile and storage stability of the protease activity; assay type: biochemical

| Molecule | resistance of the microorganism toward antibiotic [1] | also measured |
| --- | --- | --- |
| CC1(C)S[C@@H]2[C@H](NC(=O)[C@H](N)c3ccccc3)C(=O)N2[C@H]1C(=O)O [ampicillin] | resistance |  |
| O=C(N[C@H](CO)[C@H](O)c1ccc([N+](=O)[O-])cc1)C(Cl)Cl [chloramphenicol] | resistance |  |
| CN[C@@H]1[C@H](O[C@H]2[C@H](O[C@H]3[C@H](O)[C@@H](O)[C@H](N=C(N)N)[C@@H](O)[C@@H]3N=C(N)N)O[C@@H](C)[C@]2(O)C=O)O[C@@H](CO)[C@H](O)[C@H]1O [streptamycin] | resistance |  |
| B1 |  | recombinant protease activity relative to that produced by wild-type host [2]: 20.3 fold |
| B2 |  | optimum temperature [3]: 4 [deg.] C.; enzyme activity retained ([3]; after incubating the enzyme at 4[deg.] C. for about 10 days): One hundred |
